Experimental data reported in patent publication US8835411B2, “HIV integrase inhibitors” (priority 2010, dated 2014).

Tested on: recombinant NL-Rluc virus
Assay: Inhibition of HIV Replication: recombinant NL-Rluc virus, Renilla luciferase reporter
Format: cell-based
Conditions: read-out: Cell Culture, serum condition of the table not stated (10% FBS, 15 mg/ml human serum albumin/10% FBS or 40% human serum/5% FBS), at least 2 experiments

`CC(=O)NC12CCC(NC(=O)C(=O)N(C)C)(CC1)c1nc(C(=O)NCc3ccc(F)c(C)c3)c(O)c(=O)n1C2` [Example 90] gave an EC50 of under 0.01 µM.
